Data from PubChem BioAssay AID2202555 (NIEHS Division of Translational Toxicology (DTT)).
Records with an inconclusive call do not appear. Active and inactive are the calls of the source. No rule for the calls is given here.

What follows are compounds tested on rat and mouse 2-year carcinogenicity bioassay, tumor evidence (assay: Consolidated carcinogenicity assay summary data). Conditions: Route (rodents): Gavage.
Source text: Cancer Evaluation Criteria
The National Toxicology Program describes the results of individual experiments on a chemical agent and notes the strength of the evidence for conclusions regarding each study. […] Other organizations, such as the International Agency for Research on Cancer, assign a strength of evidence for conclusions based on an examination of all available evidence, including animal studies such as those conducted by the NTP, epidemiologic studies, and estimates of exposure. Thus, the actual determination of risk to humans from chemicals found to be carcinogenic in laboratory animals requires a wider analysis that extends beyond the purview of these studies.
Five categories of evidence of carcinogenic activity are used in the Technical Report series to summarize the strength of evidence observed in each experiment: two categories for positive results (clear evidence and some evidence); one category for uncertain findings (equivocal evidence); one category for no observable effects (no evidence); and one category for experiments that cannot be evaluated because of major flaws (inadequate study). These categories of interpretative conclusions were first adopted in June 1983 and then revised on March 1986 for use in the Technical Report series to incorporate more specifically the concept of actual weight of evidence of carcinogenic activity. For each separate experiment (male rats, female rats, male mice, female mice), one of the following five categories is selected to describe the findings. These categories refer to the strength of the experimental evidence and not to potency or mechanism.
For studies showing multiple chemical-related neoplastic effects that if considered individually would be assigned to different levels of evidence categories, the following convention has been adopted to convey completely the study results. In a study with clear evidence of carcinogenic activity at some tissue sites, other responses that alone might be deemed some evidence are indicated as "were also related" to chemical exposure. In studies with clear or some evidence of carcinogenic activity, other responses that alone might be termed equivocal evidence are indicated as "may have been" related to chemical exposure.
When a conclusion statement for a particular experiment is selected, consideration must be given to key factors that would extend the actual boundary of an individual category of evidence. Such consideration should allow for incorporation of scientific experience and current understanding of long-term carcinogenesis studies in laboratory animals, especially for those evaluations that may be on the borderline between two adjacent levels. These considerations should include:
- adequacy of the experimental design and conduct;
- occurrence of common versus uncommon neoplasia;
- progression (or lack thereof) from benign to malignant neoplasia as well as from preneoplastic to neoplastic lesions;
- some benign neoplasms have the capacity to regress but others (of the same morphologic type) progress. At present, it is impossible to identify the difference. Therefore, where progression is known to be a possibility, the most prudent course is to assume that benign neoplasms of those types have the potential to become malignant;
- combining benign and malignant tumor incidences known or thought to represent stages of progression in the same organ or tissue;
- latency in tumor induction;
- multiplicity in site -specific neoplasia;
- supporting information from proliferative lesions (hyperplasia) in the same site of neoplasia or in other experiments (same lesion in another sex or species);
- presence or absence of dose relationships;
- statistical significance of the observed tumor increase;
- concurrent control tumor incidence as well as the historical control rate and variability for a specific neoplasm;
- survival-adjusted analyses and false positive or false negative concerns;
- structure-activity correlations; and
[…]
`ClCc1cccnc1` was tested, and the carcinogen call was “active; clear evidence”.
For `CCCCC1C(=O)N(c2ccccc2)N(c2ccccc2)C1=O`, the carcinogen call was “active; equivocal evidence”.
With `CN(C)c1ccccc1` the carcinogen call was “active; some evidence”.
`O=[N+]([O-])c1ccc(Nc2ccc(Nc3ccccc3)c(S(=O)(=O)O)c2)c([N+](=O)[O-])c1` was tested, and the carcinogen call was “active; no evidence”.
For `O=Cc1ccc(CO)o1`, the carcinogen call was “active; no evidence”.
With `ClCC(Cl)Cl` the carcinogen call was “active; no evidence”.
In the case of `CC1(C)COC1=O`, the carcinogen call is reported as “active; clear evidence”.
For `Cc1ccc(N(C)C)cc1`, the carcinogen call was “active; clear evidence”.
`Nc1ccc(Cl)cc1` was tested, and the carcinogen call was “active; clear evidence”.
For `C=CC(=C)CCC=C(C)C`, the carcinogen call was “active; clear evidence”.
In the case of `O=Cc1ccco1`, the carcinogen call is reported as “active; some evidence”.
`Clc1ccc(-c2cc(Cl)c(Cl)cc2Cl)cc1Cl` was tested, and the carcinogen call was “active”.
`COP(=O)(OC)OC` was tested, and the carcinogen call was “active; clear evidence”.
In the case of `O=C/C=C/O`, the carcinogen call is reported as “active; clear evidence”.
In the case of `CC(CCl)OC(C)CCl` (centres undefined), the carcinogen call is reported as “active; no evidence”.
For `C[C@]12C/C(=C/O)C(=O)C[C@@H]1CC[C@@H]1[C@@H]2CC[C@@]2(C)[C@H]1CC[C@]2(C)O`, the carcinogen call was “active; equivocal evidence”.
In the case of `CC1=CC(=O)CC(C)(C)C1`, the carcinogen call is reported as “active; some evidence”.
In the case of `OCC1CO1` (centres undefined), the carcinogen call is reported as “active; clear evidence”.
`ClCC(Cl)CCl` was tested, and the carcinogen call was “active; clear evidence”.
`C[C@@H]1Cc2c(Cl)cc(C(=O)N[C@@H](Cc3ccccc3)C(=O)O)c(O)c2C(=O)O1` was tested, and the carcinogen call was “active; clear evidence”.
`Clc1ccc(-c2cc(Cl)c(Cl)c(Cl)c2)cc1Cl` was tested, and the carcinogen call was “active”.
With `COC(N)=O` the carcinogen call was “active; clear evidence”.
With `C=C(C)CCl` the carcinogen call was “active; clear evidence”.
With `Clc1ccc(Cl)cc1` the carcinogen call was “active; clear evidence”.
In the case of `ClC=CCCl`, the carcinogen call is reported as “active; clear evidence”.
`ClC=C(Cl)Cl` was tested, and the carcinogen call was “active; no evidence”.

Same assay, conditions: Route (rodents): Gavage; Second Route: Administration in utero
`Cc1cn([C@H]2C[C@H](N=[N+]=[N-])[C@@H](CO)O2)c(=O)[nH]c1=O` was tested, and the carcinogen call was “active”.

Same assay, conditions: Route (rodents): Gavage; Second Route: Topical
With `Clc1cc2c(c(Cl)c1Cl)Oc1cc(Cl)c(Cl)c(Cl)c1O2` the carcinogen call was “active; equivocal evidence”.

Same assay, conditions: Route (rodents): Inhalation
In the case of `FC(F)(F)c1ccc(Cl)cc1`, the carcinogen call is reported as “active; some evidence”.
For `c1ccc2c(c1)CCCC2`, the carcinogen call was “active; some evidence”.
In the case of `CCBr`, the carcinogen call is reported as “active; some evidence”.
In the case of `C[N+](=O)[O-]`, the carcinogen call is reported as “active; no evidence”.
With `C1CO1` the carcinogen call was “active”.
For `CC(O)COC(C)(C)C` (centres undefined), the carcinogen call was “active; equivocal evidence”.
In the case of `C1CCC2CCCCC2C1` (centres undefined), the carcinogen call is reported as “active; clear evidence”.
With `O=[O+][O-]` the carcinogen call was “active; no evidence”.
With `C1CCOC1` the carcinogen call was “active; some evidence”.
`CC(=O)C(C)=O` was tested, and the carcinogen call was “active; some evidence”.

Same assay, conditions: Route (rodents): Interperitoneal
With `COc1cc2c(c3c1c(=O)c1ccccc1n3C)C=CC(C)(C)O2` the carcinogen call was “active; clear evidence”.
In the case of `CNNCc1ccc(C(=O)NC(C)C)cc1`, the carcinogen call is reported as “active; clear evidence”.

Same assay, conditions: Route (rodents): Topical
`CC1=CC(C)(C)Nc2ccccc21` was tested, and the carcinogen call was “active; some evidence”.
With `Oc1cc(Cl)ccc1Oc1ccc(Cl)cc1Cl` the carcinogen call was “active”.
For `C=CC(=O)OCC(CC)(COC(=O)C=C)COC(=O)C=C`, the carcinogen call was “active; equivocal evidence”.
With `OCC(Br)CBr` (centres undefined) the carcinogen call was “active; clear evidence”.
